Experimental data from patent publication US20210198204A1, “PRODRUGS OF KALLIKREIN INHIBITORS” (BioCryst Pharmaceuticals, Inc., priority 2016, published 2021).

Assay: Plasma pharmacokinetics of the parent compound after a single oral dose of prodrug
Assay type: in vivo
Conditions: single oral dose 10 mg/kg, fasted male Sprague Dawley rats; plasma analyzed for the parent compound; study duration 8 h
Procedure, shortened: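 Three male Sprague Dawley rats, housed in metabolic cages and fasted about 15 hours, were weighed and received one oral gavage dose of 10 mg/kg as a solution in water or water/propylene glycol. Blood (approximately 500 μL) went into heparin tubes at set timepoints up to the study duration. Plasma was separated by centrifugation at 14,000 rpm for 3 min at 4° C, stored below −70° C, and assayed for the parent compound.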

SMILES | AUC0-last hour (area under the curve)
C=Cc1cc(C(=O)Nc2ccc(C(=N)NC(=O)OC(C)COC(=O)CCCC[C@H]3SCC4NC(=O)NC43)cc2)c(-c2ccc(C(=O)NCC3CC3)nc2C(=O)OC(C)OC(=O)OC(C)C)cc1OC (stereo partly drawn) [Compound 104b, 1-((isopropoxycarbonyl)oxy)ethyl 6-((cyclopropylmethyl)carbamoyl)-3-(5-methoxy-2-((4-(N-(((1-((5-((4R)-2-oxohexahydro-1H-thieno[3,4-d]imidazol-4-yl)pentanoyl)oxy)propan-2-yl)oxy)carbonyl)carbamimidoyl)phenyl)carbamoyl)-4-vinylphenyl)picolinate] | A (A = 0-1,000 ng/mL)
C=Cc1cc(C(=O)Nc2ccc(C(=N)NC(=O)OCc3oc(=O)oc3C)cc2)c(-c2ccc(C(=O)NCC3CC3)nc2C(=O)OC(C)OC(=O)C(C)C)cc1OC (stereo not drawn) [Compound 117b, 1-(isobutyryloxy)ethyl 6-((cyclopropylmethyl)carbamoyl)-3-(5-methoxy-2-((4-(N-(((5-methyl-2-oxo-1,3-dioxol-4-yl)methoxy)carbonyl)carbamimidoyl)phenyl)carbamoyl)-4-vinylphenyl)picolinate] | B (B = 1,001-10,000 ng/mL)
C=Cc1cc(C(=O)Nc2ccc(C(=N)NC(=O)OCc3oc(=O)oc3C)cc2)c(-c2ccc(C(=O)NCC3CC3)nc2C(=O)OCOC(=O)[C@@H](N)C(C)C)cc1OC [Compound 118c, (S)-((2-amino-3-methylbutanoyl)oxy)methyl 6-((cyclopropylmethyl)carbamoyl)-3-(5-methoxy-2-((4-(N-(((5-methyl-2-oxo-1,3-dioxol-4-yl)methoxy)carbonyl)carbamimidoyl)phenyl)carbamoyl)-4-vinylphenyl)picolinate] | A (A = 0-1,000 ng/mL)

Other lines, results leading:

AUC0-last hour (area under the curve) | SMILES
A (A = 0-1,000 ng/mL) | C=Cc1cc(C(=O)Nc2ccc(C(=N)NC(=O)OCCOC(=O)[C@@H](N)C(C)C)cc2)c(-c2ccc(C(=O)NCC3CC3)nc2C(=O)OC(C)OC(=O)C(C)C)cc1OC (stereo partly drawn) [Compound 101e, 1-(isobutyryloxy)ethyl 3-(2-((4-(N-((2-(((S)-2-amino-3-methylbutanoyl)oxy)ethoxy)carbonyl)carbamimidoyl)phenyl)carbamoyl)-5-methoxy-4-vinylphenyl)-6-((cyclopropylmethyl)carbamoyl)picolinate]
A (A = 0-1,000 ng/mL) | C=Cc1cc(C(=O)Nc2ccc(C(=N)NC(=O)OCCCCCN)cc2)c(-c2ccc(C(=O)NCC3CC3)nc2C(=O)OC(C)OC(=O)C(C)C)cc1OC (stereo not drawn) [Compound 102d, 1-(isobutyryloxy)ethyl 3-(2-((4-(N-(((5-aminopentyl)oxy)carbonyl)carbamimidoyl)phenyl)carbamoyl)-5-methoxy-4-vinylphenyl)-6-((cyclopropylmethyl)carbamoyl)picolinate]
A (A = 0-1,000 ng/mL) | C=Cc1cc(C(=O)Nc2ccc(C(=N)NC(=O)OC[C@@H]3CCC(=O)N3)cc2)c(-c2ccc(C(=O)NCC3CC3)nc2C(=O)OC(C)OC(=O)C(C)C)cc1OC (stereo partly drawn) [Compound 103c, 1-(isobutyryloxy)ethyl 6-((cyclopropylmethyl)carbamoyl)-3-(5-methoxy-2-((4-(N—((((S)-5-oxopyrrolidin-2-yl)methoxy)carbonyl)carbamimidoyl)phenyl)carbamoyl)-4-vinylphenyl)picolinate]
